# Laboratory results as given in patent US8574563B2 (Bristol-Myers Squibb Company, priority 2006, dated 2013).
# Tested on: HCV 1b-377-neo replicon cells
# Assay: HCV replicon assay, HCV 1b-377-neo replicon cells (1b FRET)
# Format: cell-based, Hepatitis C virus genotype 1b
# Settings: HCV 1b-377-neo replicon cells; HCV 1b genotype; read-out: EC50 range against HCV 1b (Table 2, Range)
# In short: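 Compounds were tested in genotype 1b subgenomic replicon cells carrying a neomycin marker, alongside a matched replicon line with an NS5A Y2065H substitution that confers resistance to a reference NS5A inhibitor.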
row,Compound,EC50
1,"O=C([C@@H](c1ccccc1)N1CCCC1)N1CCC[C@H]1c1ncc(-c2ccc(-c3ccc(-c4cnc([C@@H]5CCCN5C(=O)[C@@H](c5ccccc5)N5CCOCC5)[nH]4)cc3)cc2)[nH]1 [Example 96, 4-((1R)-2-oxo-1-phenyl-2-((2S)-2-(5-(4′-(2-((2S)-1-((2R)-2-phenyl-2-(pyrrolidinyl)acetyl)-2-pyrrolidinyl)-1H-imidazol-5-yl)-4-biphenylyl)-1H-imidazol-2-yl)-1-pyrrolidinyl)ethyl)morpholine]",0.001 to 0.999 nM
2,"COC(=O)N[C@H](C(=O)N1CCC[C@H]1c1ncc(-c2ccc(-c3ccc(-c4cnc([C@@H]5CCCN5C(=O)N5CCN(C)CC5)[nH]4)cc3)cc2)[nH]1)C(C)C [Example M82, methyl ((1S)-2-methyl-1-(((2S)-2-(5-(4′-(2-((2S)-1-((4-methyl-1-piperazinyl)carbonyl)-2-pyrrolidinyl)-1H-imidazol-5-yl)-4-biphenylyl)-1H-imidazol-2-yl)-1-pyrrolidinyl)carbonyl)propyl) carbamate]",1 to 99 nM

# Same assay, conditions: Hepatitis C virus, HCV 1b-377-neo replicon cells; HCV 1b genotype; read-out: EC50 range against HCV 1b (Table 2, Range)
row,Compound,EC50
1,"CN(C)[C@@H](C(=O)N1CCC[C@H]1c1ncc(-c2ccc(-c3ccc(-c4cnc([C@@H]5CCCN5C(=O)[C@@H](c5ccccc5)N5CCCC5)[nH]4)cc3)cc2)[nH]1)c1ccccc1 [Example 90, (1R)-N,N-dimethyl-2-oxo-1-phenyl-2-((2S)-2-(5-(4′-(2-((2S)-1-((2R)-2-phenyl-2-(1-pyrrolidinyl)acetyl)-2-pyrrolidinyl)-1H-imidazol-5-yl)-4-biphenylyl)-1H-imidazol-2-yl)-1-pyrrolidinyl)ethanamine]",0.001 to 0.999 nM
2,"COC(=O)N[C@@H](C(=O)N1CCC[C@H]1c1ncc(-c2ccc(-c3ccc(-c4cnc([C@@H]5CCCN5C(=O)Cc5cnc[nH]5)[nH]4)cc3)cc2)[nH]1)c1ccccc1 [Example 61, methyl ((1R)-2-((2S)-2-(5-(4′-(2-((2S)-1-(1H-imidazol-5-ylacetyl)-2-pyrrolidinyl)-1H-imidazol-5-yl)-4-biphenylyl)-1H-imidazol-2-yl)-1-pyrrolidinyl)-2-oxo-1-phenylethyl)carbamate]",0.001 to 0.999 nM
3,"COC(=O)N[C@H](C(=O)N1CCC[C@H]1c1ncc(-c2ccc(-c3ccc(-c4cnc([C@@H]5CCCN5C(=O)[C@H]5CC[C@H](NC(=O)OC)CC5)[nH]4)cc3)cc2)[nH]1)C(C)C [cj-70, methyl ((1S)-1-(((2S)-2-(5-(4′-(2-((2S)-1-((trans-4-((methoxycarbonyl)amino)cyclohexyl)carbonyl)-2-pyrrolidinyl)-1H-imidazol-5-yl)-4-biphenylyl)-1H-imidazol-2-yl)-1-pyrrolidinyl)carbonyl)-2-methylpropyl)carbamate]",0.001 to 0.999 nM
4,"Cc1cc(CC(=O)N2CCC[C@H]2c2ncc(-c3ccc(-c4ccc(-c5cnc([C@@H]6CCCN6C(=O)[C@@H](c6ccccc6)N(C)C)[nH]5)cc4)cc3)[nH]2)n[nH]1 [Example 94-19, (1R)-N,N-dimethyl-2-((2S)-2-(5-(4′-(2-((2S)-1-((5-methyl-1H-pyrazol-3-yl)acetyl)-2-pyrrolidinyl)-1H-imidazol-5-yl)-4-biphenylyl)-1H-imidazol-2-yl)-1-pyrrolidinyl)-2-oxo-1-phenylethanamine]",0.001 to 0.999 nM
5,"COC(=O)N[C@@H](C)C(=O)N1CCC[C@H]1c1ncc(-c2ccc(-c3ccc(-c4cnc([C@@H]5CCCN5C(=O)[C@@H](c5ccccc5)N(C)C)[nH]4)cc3)cc2)[nH]1 [Example 92, methyl ((1S)-2-((2S)-2-(5-(4′-(2-((2S)-1-((2R)-2-(dimethylamino)-2-phenylacetyl)-2-pyrrolidinyl)-1H-imidazol-5-yl)-4-biphenylyl)-1H-imidazol-2-yl)-1-pyrrolidinyl)-1-methyl-2-oxoethyl)carbamate]",0.001 to 0.999 nM
6,"CCN(CC)[C@@H](C(=O)N1CCC[C@H]1c1ncc(-c2ccc(-c3ccc(-c4nc([C@@H]5CCCN5C(=O)[C@@H](c5ccccc5)N(CC)CC)[nH]c4C)cc3)cc2)[nH]1)c1ccccc1 [Example E5a, (1R)-2-((2S)-2-(4-(4′-(2-((2S)-1-((2R)-2-(diethylamino)-2-phenylacetyl)-2-pyrrolidinyl)-1H-imidazol-4-yl)-4-biphenylyl)-5-methyl-1H-imidazol-2-yl)-1-pyrrolidinyl)-N,N-diethyl-2-oxo-1-phenylethanamine]",0.001 to 0.999 nM
7,"COC(=O)Cc1[nH]c([C@@H]2CCCN2C(=O)[C@@H](NC(=O)OC)C(C)C)nc1-c1ccc(-c2ccc(-c3cnc([C@@H]4CCCN4C(=O)[C@@H](NC(=O)OC)C(C)C)[nH]3)cc2)cc1 [Example J14b.1, methyl (2-((2S)-1-(N-(methoxycarbonyl)-L-valyl)-2-pyrrolidinyl)-4-(4′-(2-((2S)-1-(N-(methoxycarbonyl)-L-valyl)-2-pyrrolidinyl)-1H-imidazol-4-yl)-4-biphenylyl)-1H-imidazol-5-yl)acetate]",0.001 to 0.999 nM
8,"COC(=O)N[C@@H](C(=O)N1CCC[C@H]1c1ncc(-c2ccc(-c3ccc(-c4cnc([C@@H]5CCCN5C(=O)[C@@H](c5ccccc5)N5CCC(C)(O)CC5)[nH]4)cc3)cc2)[nH]1)c1ccccc1Cl [Example 107-42, methyl ((1R)-1-(2-chlorophenyl)-2-((2S)-2-(5-(4′-(2-((2S)-1-((2R)-2-(4-hydroxy-4-methyl-1-piperidinyl)-2-phenylacetyl)-2-pyrrolidinyl)-1H-imidazol-5-yl)-4-biphenylyl)-1H-imidazol-2-yl)-1-pyrrolidinyl)-2-oxoethyl) carbamate]",0.001 to 0.999 nM
9,"Cc1[nH]c([C@@H]2CCCN2C(=O)[C@@H](c2ccccc2)N(C)C)nc1-c1ccc(-c2ccc(-c3cnc([C@@H]4CCCN4C(=O)[C@@H](c4ccccc4)N(C)C)[nH]3)cc2)cc1 [Example E5, (1R)-2-((2S)-2-(4-(4′-(2-((2S)-1-((2R)-2-(dimethylamino)-2-phenylacetyl)-2-pyrrolidinyl)-1H-imidazol-4-yl)-4-biphenylyl)-5-methyl-1H-imidazol-2-yl)-1-pyrrolidinyl)-N,N-dimethyl-2-oxo-1-phenylethanamine]",0.001 to 0.999 nM
10,"O=C([C@@H](c1ccccc1)N1CCCCC1)N1CCC[C@H]1c1ncc(-c2ccc(-c3ccc(-c4cnc([C@@H]5CCCN5C(=O)C5(c6ccccc6)CC5)[nH]4)cc3)cc2)[nH]1 [Example 107-22, 1-((1R)-2-oxo-1-phenyl-2-((2S)-2-(5-(4′-(2-((2S)-1-((1-phenylcyclopropyl)carbonyl)-2-pyrrolidinyl)-1H-imidazol-5-yl)-4-biphenylyl)-1H-imidazol-2-yl)-1-pyrrolidinyl)ethyl)piperidine]",0.001 to 0.999 nM
11,"COC(=O)N[C@@H](C(=O)N1CSC[C@H]1c1ncc(-c2ccc(-c3ccc(-c4cnc([C@@H]5CSCN5C(=O)[C@H](NC(=O)OC)c5ccccc5)[nH]4)cc3)cc2)[nH]1)c1ccccc1 [Example 149, dimethyl (4,4′-biphenyldiylbis(1H-imidazole-5,2-diyl(4R)-1,3-thiazolidine-4,3-diyl((1R)-2-oxo-1-phenyl-2,1-ethanediyl)))biscarbamate]",0.001 to 0.999 nM
12,"CN(C)[C@@H](C(=O)N1C[C@@H](O)C[C@H]1c1ncc(-c2ccc(-c3ccc(-c4cnc([C@@H]5C[C@H](O)CN5C(=O)[C@@H](c5ccccc5)N(C)C)[nH]4)cc3)cc2)[nH]1)c1ccccc1 [Example 24-16, (3S,5S,3′S,5′S)-5,5′-(4,4′-biphenyldiylbis(1H-imidazole-5,2-diyl))bis(1-((2R)-2-(dimethylamino)-2-phenylacetyl)-3-pyrrolidinol)]",0.001 to 0.999 nM
13,"COC(=O)N[C@@H](C(=O)N1[C@@H](C)CC[C@H]1c1nc(-c2ccc(-c3ccc(-c4c[nH]c([C@@H]5CC[C@H](C)N5C(=O)[C@H](NC(=O)OC)c5ccccc5)n4)cc3)cc2)c[nH]1)c1ccccc1 [Example M153, dimethyl (4,4′-biphenyldiylbis(1H-imidazole-4,2-diyl((2S,5S)-5-methyl-2,1-pyrrolidinediyl)((1R)-2-oxo-1-phenyl-2,1-ethanediyl)))biscarbamate]",0.001 to 0.999 nM
14,"COC(=O)N[C@@H](C(=O)N1CCC[C@H]1c1ncc(-c2ccc(-c3ccc(-c4cnc([C@@H]5CCCN5C(=O)C5CCN(C)CC5)[nH]4)cc3)cc2)[nH]1)c1ccccc1 [Example 44, methyl ((1R)-2-((2S)-2-(5-(4′-(2-((2S)-1-((1-methyl-4-piperidinyl)carbonyl)-2-pyrrolidinyl)-1H-imidazol-5-yl)-4-biphenylyl)-1H-imidazol-2-yl)-1-pyrrolidinyl)-2-oxo-1-phenylethyl)carbamate]",0.001 to 0.999 nM
15,"COC(=O)N[C@@H](C)C(=O)N1CCC[C@H]1c1ncc(-c2ccc(-c3ccc(-c4cnc([C@@H]5CCCN5C(=O)C(c5ccccc5)N5C6CCC5CC6)[nH]4)cc3)cc2)[nH]1 (stereo partly drawn) [Example M97, methyl ((1S)-2-((2S)-2-(5-(4′-(2-((2S)-1-(7-azabicyclo[2.2.1]hept-7-yl(phenyl)acetyl)-2-pyrrolidinyl)-1H-imidazol-5-yl)-4-biphenylyl)-1H-imidazol-2-yl)-1-pyrrolidinyl)-1-methyl-2-oxoethyl)carbamate]",1 to 99 nM
16,"CCN(CC)[C@@H](C(=O)N1CCC[C@H]1c1ncc(-c2ccc(-c3ccc(-c4cnc([C@@H]5CCCN5C(=O)[C@H]5CC[C@@H](NC(=O)OC)C5)[nH]4)cc3)cc2)[nH]1)c1ccccc1 [cj-60, methyl ((1R,3S)-3-(((2S)-2-(5-(4′-(2-((2S)-1-((2R)-2-(diethylamino)-2-phenylacetyl)-2-pyrrolidinyl)-1H-imidazol-5-yl)-4-biphenylyl)-1H-imidazol-2-yl)-1-pyrrolidinyl)carbonyl)cyclopentyl)carbamate]",0.001 to 0.999 nM
17,"COC(=O)N[C@@H](C)C(=O)N1CCC[C@H]1c1ncc(-c2ccc(-c3ccc(-c4cnc([C@@H]5CCCN5C(=O)[C@H]5CCCC[C@H]5NC(=O)OC)[nH]4)cc3)cc2)[nH]1 [cj-96, methyl ((1R,2S)-2-(((2S)-2-(5-(4′-(2-((2S)-1-(N-(methoxycarbonyl)-L-alanyl)-2-pyrrolidinyl)-1H-imidazol-5-yl)-4-biphenylyl)-1H-imidazol-2-yl)-1-pyrrolidinyl)carbonyl)cyclohexyl)carbamate]",0.001 to 0.999 nM
